Test results from PubChem BioAssay AID256 (DTP/NCI, 2004).
Inconclusive results and toxic doses are left out. Rule for the calls: active = survival T/C of 150% or more; inactive = T/C below 125% in these data.

System: CD2F1 mice, L1210 leukemia ip, survival T/C
Assay: NCI In Vivo Anticancer Drug Screen. Data for tumor model L1210 Leukemia (intraperitoneal) in CD2F1 (CDF1) mice
Details: higher = longer survival
Summary of the method: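 In this screen, transplantable tumors were grown in mice given either the compound or its vehicle. Results were expressed as the treated measurement relative to the control measurement.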

[1] = endpoint: mean survival time, dose: 100.0 mg/kg/injection, schedule: Q01DX009 (ip), vehicle: saline with Tween-80
[2] = endpoint: mean survival time, dose: 100.0 mg/kg/injection, schedule: Q04DX002 (ip), vehicle: saline with Tween-80
[3] = endpoint: mean survival time, dose: 100.0 mg/kg/injection, schedule: Q04DX003 (ip), vehicle: saline with Tween-80
[4] = endpoint: mean survival time, dose: 200.0 mg/kg/injection, schedule: Q01DX009 (ip), vehicle: saline with Tween-80
[5] = endpoint: mean survival time, dose: 200.0 mg/kg/injection, schedule: Q04DX002 (ip), vehicle: saline with Tween-80
[6] = endpoint: mean survival time, dose: 200.0 mg/kg/injection, schedule: Q04DX003 (ip), vehicle: saline with Tween-80
[7] = endpoint: mean survival time, dose: 400.0 mg/kg/injection, schedule: Q01DX009 (ip), vehicle: saline with Tween-80
[8] = endpoint: mean survival time, dose: 400.0 mg/kg/injection, schedule: Q04DX002 (ip), vehicle: saline with Tween-80
[9] = endpoint: mean survival time, dose: 400.0 mg/kg/injection, schedule: Q04DX003 (ip), vehicle: saline with Tween-80

Measured: T/C

Oc1ccc(Br)cc1/C=N/c1nc(-c2ccccc2)cs1.Oc1ccc(Br)cc1/C=N/c1nc(-c2ccccc2)cs1.[Co]
inactive: endpoint: mean survival time, dose: 100.0 mg/kg/injection, schedule: Q01DX001 (ip), vehicle: saline 100 % of control | endpoint: mean survival time, dose: 200.0 mg/kg/injection, schedule: Q01DX001 (ip), vehicle: saline 89 % of control

CC(C)CCC(C(=O)O)C(=O)O
inactive: endpoint: mean survival time, dose: 75.0 mg/kg/injection, schedule: Q01DX001 (ip), vehicle: saline 96 % of control | endpoint: mean survival time, dose: 150.0 mg/kg/injection, schedule: Q01DX001 (ip), vehicle: saline 102 % of control

COC(=O)Nc1nc2ccc(SC)cc2c(=O)[nH]1
inactive: endpoint: median survival time, dose: 25.0 mg/kg/injection, schedule: Q01DX009 (ip), vehicle: Klucel (hydroxypropylcellulose) (HPC) 98 % of control | endpoint: median survival time, dose: 50.0 mg/kg/injection, schedule: Q01DX009 (ip), vehicle: Klucel (hydroxypropylcellulose) (HPC) 98 % of control | endpoint: median survival time, dose: 100.0 mg/kg/injection, schedule: Q01DX009 (ip), vehicle: Klucel (hydroxypropylcellulose) (HPC) 98 % of control | endpoint: median survival time, dose: 200.0 mg/kg/injection, schedule: Q01DX009 (ip), vehicle: Klucel (hydroxypropylcellulose) (HPC) 112 % of control

CCOC(=O)C1CC(=O)C(C(=O)OCC)CC1=O (stereo unspecified)
inactive: [1] 100 % of control | [2] 107 % of control | [3] 100 % of control | [4] 97 % of control | [5] 98 % of control | [6] 93 % of control | [7] 97 % of control | [8] 102 % of control | [9] 98 % of control

O=C1c2ccccc2S(=O)(=O)c2cccc(S(=O)(=O)c3ccccc3)c21
inactive: [3] 98 % of control | [6] 95 % of control | [9] 90 % of control

CN(C)S(=O)(=O)Oc1cccc([N+](=O)[O-])c1
inactive: [3] 96 % of control

COc1ccc(C(C)C(C)=O)cc1 (stereo unspecified)
inactive: endpoint: mean survival time, dose: 12.5 mg/kg/injection, schedule: Q01DX009 (ip), vehicle: saline with Tween-80 91 % of control | endpoint: mean survival time, dose: 25.0 mg/kg/injection, schedule: Q01DX009 (ip), vehicle: saline with Tween-80 91 % of control | endpoint: mean survival time, dose: 50.0 mg/kg/injection, schedule: Q01DX009 (ip), vehicle: saline with Tween-80 95 % of control

O=C1CCNC(=O)N1
inactive: [1] 93 % of control | [3] 106 % of control | [4] 98 % of control | [6] 101 % of control | [7] 93 % of control | [9] 95 % of control

CCC(=O)c1ccc2c(c1)N(CCCN1CCN(CCO)CC1)c1ccccc1S2
inactive: endpoint: mean survival time, dose: 25.0 mg/kg/injection, schedule: Q04DX003 (ip), vehicle: Klucel (hydroxypropylcellulose) (HPC) 97 % of control | endpoint: mean survival time, dose: 100.0 mg/kg/injection, schedule: Q04DX003 (ip), vehicle: Klucel (hydroxypropylcellulose) (HPC) 116 % of control

COc1cc(CCCCl)cc(OC)c1OC
inactive: [2] 100 % of control | [5] 100 % of control | [8] 103 % of control

CCOC(=O)/C(C#N)=C\c1cc([N+](=O)[O-])ccc1Cl
inactive: [3] 89 % of control | [6] 108 % of control | [9] 108 % of control

CN(C)Cc1[c-]c(CN(C)C)ccc1.[Br][Pt]
inactive: endpoint: mean survival time, dose: 3.12 mg/kg/injection, schedule: Q04DX003 (ip), vehicle: saline 96 % of control | endpoint: mean survival time, dose: 6.25 mg/kg/injection, schedule: Q04DX003 (ip), vehicle: saline 97 % of control | endpoint: mean survival time, dose: 12.5 mg/kg/injection, schedule: Q04DX003 (ip), vehicle: saline 97 % of control | endpoint: mean survival time, dose: 25.0 mg/kg/injection, schedule: Q04DX003 (ip), vehicle: saline 108 % of control | endpoint: mean survival time, dose: 50.0 mg/kg/injection, schedule: Q04DX003 (ip), vehicle: saline 97 % of control | endpoint: mean survival time, dose: 100.0 mg/kg/injection, schedule: Q04DX003 (ip), vehicle: saline 105 % of control | endpoint: mean survival time, dose: 200.0 mg/kg/injection, schedule: Q04DX003 (ip), vehicle: saline 100 % of control

ClCCN(CCCl)c1ccc(CNCCCNCc2ccc(N(CCCl)CCCl)cc2)cc1
inactive: endpoint: mean survival time, dose: 1.25 mg/kg/injection, schedule: Q01DX009 (ip), vehicle: saline sonified 118 % of control | endpoint: mean survival time, dose: 2.5 mg/kg/injection, schedule: Q01DX009 (ip), vehicle: saline sonified 118 % of control | endpoint: mean survival time, dose: 3.3 mg/kg/injection, schedule: Q01DX009 (ip), vehicle: saline sonified 117 % of control | endpoint: mean survival time, dose: 5.0 mg/kg/injection, schedule: Q01DX009 (ip), vehicle: saline sonified 117 % of control | endpoint: mean survival time, dose: 7.5 mg/kg/injection, schedule: Q01DX009 (ip), vehicle: saline sonified 121 % of control | endpoint: mean survival time, dose: 10.0 mg/kg/injection, schedule: Q04DX003 (ip), vehicle: saline with Tween-80 120 % of control | endpoint: mean survival time, dose: 20.0 mg/kg/injection, schedule: Q04DX003 (ip), vehicle: saline with Tween-80 121 % of control | endpoint: mean survival time, dose: 40.0 mg/kg/injection, schedule: Q04DX003 (ip), vehicle: saline with Tween-80 120 % of control

CCc1ccc(C(=O)CCCCl)cc1
inactive: [1] 104 % of control | [4] 100 % of control | [7] 100 % of control
